System: methylamphetamine-induced behavioral sensitization (spontaneous activities of the mice)
Test: Animal pharmacodynamic evaluation: methylamphetamine-induced behavioral sensitization, spontaneous activity
Format: in vivo, SD mice
Settings: methylamphetamine 2 mg/kg i.p., no implant, from day 7; FIG. 9
Description: All mice were bred under the same conditions. The product of the present disclosure was surgically implanted into each mouse in a model group before an experiment. Except implantation of the product of the present disclosure, other experimental conditions of a positive control group were the same as those of the model group. Mice in a negative control group were normally bred without undergoing experimental treatment. Behavioral differences among the model group, the positive control group, and the negative control group were observed during the experiment.
36 SD mice weighing […], half male and half female, were taken. The mice were randomly divided into 3 groups: a positive control group, a negative control group, and a model group. The compound sustained-release preparation (prepared in Example 1) was implanted into the back of each mouse in the model group before administration, and a challenge experiment was carried out on the second day after surgery.
During the formative period, methylamphetamine (2 mg/kg) was daily intraperitoneally injected into each mouse in the positive control group and the model group, an equal amount of normal saline was intraperitoneally injected into each mouse in the negative control group for 7 consecutive days. During the conversion period, the drug was withdrawn for 7 days without any treatment. […]

For CN[C@@H](C)Cc1ccccc1 [methylamphetamine], the “activities of the mice in the positive control group (behavioral sensitization)” value was “significantly increased (P<0.05)”.
